The values that follow are results of earlier work, collected in US20100204282A1, “Reverse indoles as 5-lipoxygenase-activating protein (FLAP) inhibitors” (priority 2007, published 2010).

The conditions of series [1]: for efficacy in asthma: in vivo.
The test system of series [2] is mouse model of renal ischemia.
For series [3], the system named is porcine carotid injury model.
The test system of series [4] is rat photochemical model of endothelial injury.

In the case of `CC(C)(C)Sc1c(CC(C)(C)C(=O)O)n(Cc2ccc(Cl)cc2)c2ccc(OCc3ccc4ccccc4n3)cc12` [MK-0591, 2-((5-((quinolin-2-yl)methoxy)-1-(4-chlorobenzyl)-3-(tert-butylthio)-1H-indol-2-yl)methyl)-2-methylpropanoic acid], in series [1], the efficacy in asthma result was “have efficacy in asthma”.

`CC(C)(O)c1ccccc1CCC(SCC1(CC(=O)O)CC1)c1cccc(C=Cc2ccc3ccc(Cl)cc3n2)c1` (stereo not drawn) [montelukast, [1-[[1-[3-[2-[(7-chloro-2-quinolyl)]vinyl]phenyl]-3-[2-(1-hydroxy-1-methyl-ethyl)phenyl]-propyl]sulfanylmethyl]cyclopropyl]acetic acid]: the “efficacy in asthma and allergic rhinitis” value in series [1] (CysLT1 receptor antagonist) is “efficacious in asthma and allergic rhinitis”.

Consider `O=C(O)[C@@H](c1ccc(OCc2ccc3ccccc3n2)cc1)C1CCCC1` [BAY X1005, (R)-2-[4-(quinolin-2-yl-methoxy)phenyl]-2-cyclopentyl acetic acid], for which the efficacy in asthma entry in series [1] is reported as “have efficacy in asthma”. Turning to `CC(c1cc2ccccc2s1)N(O)C(N)=O` (stereo not drawn) [zileuton], the efficacy in asthma entry in series [1] is reported as “has efficacy in asthma”. Further, the renal ischemia result in series [2] is reported as “reduce renal ischemia”. As to `COc1cc(C(=O)NS(=O)(=O)c2ccccc2C)ccc1Cc1cn(C)c2ccc(NC(=O)OC3CCCC3)cc12` [zafirlukast], the efficacy in asthma entry in series [1] was “efficacious in asthma”. `CC(C)c1ccc2c(c1)c(SC(C)(C)C)c(CC(C)(C)C(=O)O)n2Cc1ccc(Cl)cc1` [MK-886, 2-((1-(4-chlorobenzyl)-3-(tert-butylthio)-5-isopropyl-1H-indol-2-yl)methyl)-2-methylpropanoic acid]: in series [3], the postangioplasty vasoconstrictive response entry was “decreases the postangioplasty vasoconstrictive response”. Also, the “femoral artery intimal hyperplasia” value in series [4] was “suppresses femoral artery intimal hyperplasia”. Moreover, in series [1], the efficacy in asthma entry is “have efficacy in asthma”.
